≈ marks a conversion by molar mass, not a printed value.
Tests used:
Vero cells = test: Cytotoxicity of the compounds for Vero cells (CPE observation, TC50); format: cell-based; details: no virus
[1] = system: enterovirus EV71 (BrCr strain); test: Activity screening for anti-enterovirus EV71: inhibition of cytopathic effect in Vero cells; format: cell-based; details: for IC50: 100TCID50, Vero cells, CPE read when virus control reaches 4+, read-out: IC50 (half inhibitory concentration for enterovirus EV71); for SI (Selectivity Index = TC50/IC50): Vero cells

SMILES | IC50 [1] [µg/mL] | melting point [°C] | TC50 (half toxic concentration for Vero cells) (Vero cells) [µg/mL] | SI (Selectivity Index = TC50/IC50) [1]
O=C(Nc1ccc(Cl)c(Cl)c1)[C@H]1O[C@@H]1C(=O)N(Cc1ccccc1)c1ccccc1 [Compound 3, (2S,3S)—N^2-benzyl-N^2-phenyl-N^3-(3,4-dichlorophenyl)-2,3-epoxybutanediamide] | 2.47 (≈ 5.6 µM) | 174.5 to 175.7 | 5.14 | 2.08
O=C(Nc1ccccc1Cl)[C@H]1O[C@@H]1C(=O)N(Cc1ccccc1)c1ccccc1 [Compound 11, (2S,3S)—N^2-benzyl-N^2-phenyl-N^3-(2-chlorophenyl)-2,3-epoxybutanediamide] | 0.15 (≈ 0.369 µM) | 117.3 to 118.2 | 1.43 | 9.53
O=C(Nc1cccc(Br)c1)[C@H]1O[C@@H]1C(=O)N(Cc1ccccc1)c1ccccc1 [Compound 14, (2S,3S)—N^2-benzyl-N^2-phenyl-N^3-(3-bromophenyl)-2,3-epoxybutanediamide] | 1.43 (≈ 3.17 µM) | 177.5 to 178.2 | 12.83 | 8.97
O=C(Nc1ccccc1F)[C@H]1O[C@@H]1C(=O)N(Cc1ccccc1)c1ccccc1 [Compound 6, (2S,3S)—N^2-benzyl-N^2-phenyl-N^3-(2-fluorophenyl)-2,3-epoxybutanediamide] | 0.82 (≈ 2.1 µM) | 139.2 to 140.3 | 4.28 | 5.22
O=C(Nc1ccccc1Br)[C@H]1O[C@@H]1C(=O)N(Cc1ccccc1)c1ccccc1 [Compound 15, (2S,3S)—N^2-benzyl-N^2-phenyl-N^3-(2-bromophenyl)-2,3-epoxybutanediamide] | 0.47 (≈ 1.04 µM) | 113.2 to 114.3 | 1.43 | 3.04
COc1ccc(NC(=O)[C@H]2O[C@@H]2C(=O)N(Cc2ccccc2)c2ccc(C(=O)Nc3nc4ccccc4s3)cc2)cc1OC [Compound 39, (2S,3S)—N^2-(4-(benzo[d]thiazol-2-ylcarbamoyl)phenyl)-N^2-benzyl-N^3-(3,4-dimethoxyphenyl)-2,3-epoxybutanediamide] | 4.28 (≈ 7.03 µM) | 224.5 to 226 | 32.05 | 7.49
O=C(Nc1cccc(Cl)c1Cl)[C@H]1O[C@@H]1C(=O)N(Cc1ccccc1)c1ccccc1 [Compound 10, (2S,3S)—N^2-benzyl-N^2-phenyl-N^3-(2,3-dichlorophenyl)-2,3-epoxybutanediamide] | 0.15 (≈ 0.34 µM) | 115.7 to 115.8 | 1.43 | 9.53

Continued, in another order:

IC50 [1] [µg/mL] | melting point [°C] | SMILES | TC50 (half toxic concentration for Vero cells) (Vero cells) [µg/mL] | SI (Selectivity Index = TC50/IC50) [1]
> 0.82 | 218.2 to 219.1 | O=C(Nc1nc2ccccc2s1)c1ccc(N(Cc2ccc(F)cc2)C(=O)[C@H]2O[C@@H]2C(=O)Nc2ccc(Cl)c(Cl)c2)cc1 [Compound 31, (2S,3S)—N^2-(4-(benzo[d]thiazol-2-ylcarbamoyl)phenyl)-N^3-(3,4-dichlorophenyl)-N^2-(4-fluorobenzyl)-2,3-epoxybutanediamide] | 1.43 | 
> 0.27 | 179.2 to 180.1 | O=C(Nc1nc2ccccc2s1)c1ccc(N(Cc2ccc(F)cc2)C(=O)[C@H]2O[C@@H]2C(=O)Nc2ccccc2Br)cc1 [Compound 27, (2S,3S)—N^2-(4-(benzo[d]thiazol-2-ylcarbamoyl)phenyl)-N^3-(2-bromophenyl)-N^2-(4-fluorobenzyl)-2,3-epoxybutanediamide] | 0.82 | 
> 0.82 | 196.3 to 197.1 | COC(=O)c1csc(NC(=O)[C@H]2O[C@@H]2C(=O)N(Cc2ccc(F)cc2)c2ccc(C(=O)Nc3nc4ccccc4s3)cc2)n1 [Compound 34, (2S,3S)—N^2-(4-(benzo[d]thiazol-2-ylcarbamoyl)phenyl)-N^2-(4-fluorobenzyl)-N^3-(4-methoxycarbonylthiazol-2-yl)-2,3-epoxybutanediamide] | 1.43 | 
> 0.27 | 216.4 to 217.2 | O=C(Nc1nc2ccccc2s1)c1ccc(N(Cc2ccc(F)cc2)C(=O)[C@H]2O[C@@H]2C(=O)Nc2nccs2)cc1 [Compound 32, (2S,3S)—N^2-(4-(benzo[d]thiazol-2-ylcarbamoyl)phenyl)-N^2-(4-fluorobenzyl)-N^3-(2-thiazolyl)-2,3-epoxybutanediamide] | 1.19 | 
> 0.82 | 203.5 to 204.2 | O=C(Nc1nc2ccccc2s1)c1ccc(N(Cc2ccc(F)cc2)C(=O)[C@H]2O[C@@H]2C(=O)Nc2ccc([N+](=O)[O-])cc2)cc1 [Compound 24, (2S,3S)—N^2-(4-(benzo[d]thiazol-2-ylcarbamoyl)phenyl)-N^3-(4-nitrophenyl)-N^2-(4-fluorobenzyl)-2,3-epoxybutanediamide] | 1.43 | 
> 0.82 | 217.6 to 218.3 | O=C(Nc1nc2ccccc2s1)c1ccc(N(Cc2ccccc2)C(=O)[C@H]2O[C@@H]2C(=O)Nc2ccc(Cl)c(Cl)c2)cc1 [Compound 40, (2S,3S)—N^2-(4-(benzo[d]thiazol-2-ylcarbamoyl)phenyl)-N^2-benzyl-N^3-(3,4-dichlorophenyl)-2,3-epoxybutanediamide] | 1.43 | 
> 0.27 | 210.2 to 211.1 | O=C(Nc1nc2ccccc2s1)c1ccc(N(Cc2ccc(F)cc2)C(=O)[C@H]2O[C@@H]2C(=O)Nc2cccc(Cl)c2Cl)cc1 [Compound 25, (2S,3S)—N^2-(4-(benzo[d]thiazol-2-ylcarbamoyl)phenyl)-N^3-(2,3-dichlorophenyl)-N^2-(4-fluorobenzyl)-2,3-epoxybutanediamide] | 0.82 | 
> 0.82 | 198.7 to 199.5 | O=C(Nc1nc2ccccc2s1)c1ccc(N(Cc2ccc(F)cc2)C(=O)[C@H]2O[C@@H]2C(=O)Nc2ccc(Cl)cc2)cc1 [Compound 19, (2S,3S)—N^2-(4-(benzo[d]thiazol-2-ylcarbamoyl)phenyl)-N^3-(4-chlorophenyl)-N^2-(4-fluorobenzyl)-2,3-epoxybutanediamide] | 1.43 | 

Source: patent publication US9630957B2, “2,3-butanediamide epoxide compound and preparation method and use thereof” (Institute of Pharmacology and Toxicology Academy of …, priority 2014, dated 2017)
